From ChEMBL document CHEMBL3286254, “Structure-guided discovery of 1,3,5 tri-substituted benzenes as potent and selective matriptase inhibitors exhibiting in vivo antitumor efficacy” (Bioorg Med Chem, 2014)
≈ marks a conversion by molar mass, not a printed value.

Experiments:
[1] = system: Mus musculus; assay: Toxicity in SCID mouse xenografted with human DU145 cells assessed as body weight change at 1 mg/kg, sc administered twice daily for 31 days; settings: in vivo, 744 h
[2] = target: Trypsin (Homo sapiens, UniProt P07477+P07478+P35030); assay: Inhibition of human pancreas Trypsin using Boc-Gln-Ala-Arg-7-amido-4-methyl coumarin hydrobromide; type: protein assay
[3] = Metabolic stability in mouse liver microsomes assessed as compound remaining after 20 mins; type: ADME; settings: read-out: Stability
[4] = target: Cytochrome P450 2C9 (Homo sapiens, UniProt P11712); assay: Inhibition of CYP2C9 (unknown origin); type: ADME
Sequence of Cytochrome P450 2C9 (P11712 whole entry): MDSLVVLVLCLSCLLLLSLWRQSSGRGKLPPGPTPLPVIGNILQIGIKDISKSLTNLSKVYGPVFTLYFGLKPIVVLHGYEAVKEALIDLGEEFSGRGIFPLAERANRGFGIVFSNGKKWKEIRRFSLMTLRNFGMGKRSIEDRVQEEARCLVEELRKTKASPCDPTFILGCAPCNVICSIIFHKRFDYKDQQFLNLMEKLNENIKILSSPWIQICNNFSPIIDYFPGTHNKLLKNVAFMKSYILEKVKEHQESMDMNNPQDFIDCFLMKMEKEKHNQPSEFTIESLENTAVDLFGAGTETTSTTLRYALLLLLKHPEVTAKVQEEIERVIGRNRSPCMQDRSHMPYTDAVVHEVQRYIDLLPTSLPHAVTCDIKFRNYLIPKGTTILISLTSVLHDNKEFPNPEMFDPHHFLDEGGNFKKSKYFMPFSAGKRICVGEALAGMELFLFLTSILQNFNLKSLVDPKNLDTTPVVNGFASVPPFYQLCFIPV

[5] = target: Cytochrome P450 2D6 (Homo sapiens, UniProt P10635); assay: Inhibition of CYP2D6 (unknown origin); type: ADME
Sequence of Cytochrome P450 2D6 (P10635 whole entry): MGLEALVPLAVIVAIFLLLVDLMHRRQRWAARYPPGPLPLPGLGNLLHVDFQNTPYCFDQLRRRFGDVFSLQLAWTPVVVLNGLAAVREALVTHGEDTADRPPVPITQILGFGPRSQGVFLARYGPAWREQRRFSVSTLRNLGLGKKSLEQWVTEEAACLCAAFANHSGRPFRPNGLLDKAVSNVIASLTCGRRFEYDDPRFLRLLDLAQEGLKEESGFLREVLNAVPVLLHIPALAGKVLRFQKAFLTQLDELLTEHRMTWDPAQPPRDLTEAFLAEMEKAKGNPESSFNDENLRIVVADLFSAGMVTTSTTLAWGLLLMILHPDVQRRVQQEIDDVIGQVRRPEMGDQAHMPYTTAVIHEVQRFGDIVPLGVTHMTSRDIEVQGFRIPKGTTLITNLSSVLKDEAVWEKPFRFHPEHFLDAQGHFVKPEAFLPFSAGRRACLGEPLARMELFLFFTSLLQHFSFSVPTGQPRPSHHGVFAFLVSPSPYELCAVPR

[6] = target: Coagulation factor X (Bos taurus, UniProt P00743); assay: Inhibition of bovine plasma factor 10a using CH3OCO-D-CHA-Gly-Arg-pNA.AcoH substrate
Sequence of Coagulation factor X (P00743 41-180 limits assumed): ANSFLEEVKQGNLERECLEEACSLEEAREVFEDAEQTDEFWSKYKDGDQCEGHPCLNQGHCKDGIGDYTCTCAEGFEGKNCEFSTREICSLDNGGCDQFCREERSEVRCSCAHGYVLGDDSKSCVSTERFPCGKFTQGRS
Sequence of Coagulation factor X (P00743 234-492 limits assumed): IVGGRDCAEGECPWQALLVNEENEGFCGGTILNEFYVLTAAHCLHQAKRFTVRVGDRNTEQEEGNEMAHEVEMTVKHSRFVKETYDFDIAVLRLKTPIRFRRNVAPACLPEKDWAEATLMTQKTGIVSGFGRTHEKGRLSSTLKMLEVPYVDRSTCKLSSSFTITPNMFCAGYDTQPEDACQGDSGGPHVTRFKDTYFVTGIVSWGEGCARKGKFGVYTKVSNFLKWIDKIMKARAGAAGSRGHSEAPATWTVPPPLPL

[7] = Antiinvasion activity in human LNCaP-C42B4 cells assessed as inhibition of FBS-induced cell invaded to lower surface at 10 uM for 3 days by matrigel assay; type: functional; settings: LNCaP-C42B4, 72 h
[8] = target: T1, Suppressor of tumorigenicity 14 protein (Homo sapiens, UniProt Q9Y5Y6); assay: Inhibition of recombinant matriptase (unknown origin) using Boc-Gln-Ala-Arg-7-amido-4-methyl coumarin hydrobromide
T1 sequence (Q9Y5Y6 whole entry): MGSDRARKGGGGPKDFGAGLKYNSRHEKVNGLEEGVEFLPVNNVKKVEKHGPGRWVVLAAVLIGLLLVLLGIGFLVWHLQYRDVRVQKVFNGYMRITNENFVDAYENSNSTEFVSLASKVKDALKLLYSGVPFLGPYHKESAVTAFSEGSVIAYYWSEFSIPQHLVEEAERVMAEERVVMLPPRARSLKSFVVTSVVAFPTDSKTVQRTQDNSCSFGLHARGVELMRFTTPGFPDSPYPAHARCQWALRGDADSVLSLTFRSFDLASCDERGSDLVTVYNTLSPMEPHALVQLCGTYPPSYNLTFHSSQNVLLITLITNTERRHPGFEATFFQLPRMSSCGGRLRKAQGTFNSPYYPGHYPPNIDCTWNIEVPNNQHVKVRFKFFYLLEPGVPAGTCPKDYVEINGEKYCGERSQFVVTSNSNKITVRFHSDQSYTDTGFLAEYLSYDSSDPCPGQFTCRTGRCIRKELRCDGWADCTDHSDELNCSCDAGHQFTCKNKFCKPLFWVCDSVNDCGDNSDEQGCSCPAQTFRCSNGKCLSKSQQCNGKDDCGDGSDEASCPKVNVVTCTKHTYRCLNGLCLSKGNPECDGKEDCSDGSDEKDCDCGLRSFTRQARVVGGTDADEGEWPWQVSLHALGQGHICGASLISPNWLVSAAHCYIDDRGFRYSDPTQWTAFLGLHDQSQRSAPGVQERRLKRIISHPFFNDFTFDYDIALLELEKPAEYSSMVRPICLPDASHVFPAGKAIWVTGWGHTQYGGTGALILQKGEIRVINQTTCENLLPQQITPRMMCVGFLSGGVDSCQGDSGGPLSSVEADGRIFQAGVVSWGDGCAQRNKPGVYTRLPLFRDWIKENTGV

[9] = system: DU-145; assay: Cytotoxicity against human DU145 cells assessed as inhibition of number of colonies formed in soft agar measured on day 8; type: functional, cell-based; settings: DU-145, 192 h
[10] = system: Mus musculus; assay: Toxicity in SCID mouse xenografted with human DU145 cells assessed as clinical signs at 1 mg/kg, sc administered twice daily for 31 days; settings: in vivo, 744 h
[11] = Cytotoxicity against human LNCaP-C42B4 cells assessed as inhibition of number of colonies formed in soft agar measured on day 8; type: functional, cell-based; settings: LNCaP-C42B4, 192 h
[12] = Tmax in NMRI mouse at 1 mg/kg, sc; settings: in vivo
[13] = Cytotoxicity against human LNCaP-C42B4 cells assessed as cell survival at 10 uM after 72 hrs by calcein AM assay; type: functional; settings: LNCaP-C42B4, 72 h, read-out: Activity
[14] = AUC (0 to infinity) in NMRI mouse at 1 mg/kg, sc; settings: plasma
[15] = Aqueous solubility of the compound; type: physicochemical; settings: buffer
[16] = target: Cytochrome P450 2C19 (Homo sapiens, UniProt P33261); assay: Inhibition of CYP2C19 (unknown origin); type: ADME
Sequence of Cytochrome P450 2C19 (P33261 whole entry): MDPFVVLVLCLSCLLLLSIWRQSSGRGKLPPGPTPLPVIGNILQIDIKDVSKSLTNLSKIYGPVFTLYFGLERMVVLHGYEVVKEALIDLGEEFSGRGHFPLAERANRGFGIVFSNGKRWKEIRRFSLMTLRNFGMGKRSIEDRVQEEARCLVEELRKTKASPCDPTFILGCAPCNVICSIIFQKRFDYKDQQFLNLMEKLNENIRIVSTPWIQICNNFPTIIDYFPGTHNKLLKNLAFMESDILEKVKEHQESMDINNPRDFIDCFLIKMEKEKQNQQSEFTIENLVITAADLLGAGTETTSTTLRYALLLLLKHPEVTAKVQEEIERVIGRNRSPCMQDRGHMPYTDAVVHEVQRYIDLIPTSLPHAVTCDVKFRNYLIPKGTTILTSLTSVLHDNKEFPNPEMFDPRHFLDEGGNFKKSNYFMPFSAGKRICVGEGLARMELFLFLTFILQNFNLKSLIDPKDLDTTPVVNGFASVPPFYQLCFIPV

[17] = target: Cytochrome P450 3A4 (Homo sapiens, UniProt P08684); assay: Inhibition of CYP3A4 (unknown origin); type: ADME
Sequence of Cytochrome P450 3A4 (P08684 whole entry): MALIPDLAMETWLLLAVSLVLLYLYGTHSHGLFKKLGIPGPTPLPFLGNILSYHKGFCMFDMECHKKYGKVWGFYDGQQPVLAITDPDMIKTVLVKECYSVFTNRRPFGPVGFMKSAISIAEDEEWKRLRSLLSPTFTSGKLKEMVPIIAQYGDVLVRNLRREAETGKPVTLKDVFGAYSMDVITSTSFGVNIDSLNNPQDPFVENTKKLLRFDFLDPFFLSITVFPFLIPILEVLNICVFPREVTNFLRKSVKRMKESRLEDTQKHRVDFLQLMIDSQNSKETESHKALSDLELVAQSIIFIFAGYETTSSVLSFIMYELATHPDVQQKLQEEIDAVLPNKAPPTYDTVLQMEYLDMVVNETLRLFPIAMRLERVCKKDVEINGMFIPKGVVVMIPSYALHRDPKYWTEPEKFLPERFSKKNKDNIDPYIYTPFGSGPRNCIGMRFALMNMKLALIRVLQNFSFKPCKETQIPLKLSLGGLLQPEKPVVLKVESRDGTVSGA

[18] = system: PC-3; assay: Cytotoxicity against human PC3 cells assessed as inhibition of number of colonies formed in soft agar measured on day 8; type: functional, cell-based; settings: PC-3, 192 h
[19] = system: DU-145; assay: Antiinvasion activity in human DU145 cells assessed as inhibition of FBS-induced cell invaded to lower surface at 10 uM for 3 days by matrigel assay; type: functional; settings: DU-145, 72 h
[20] = system: DU-145; assay: Cytotoxicity against human DU145 cells assessed as cell survival at 10 uM after 72 hrs by calcein AM assay; type: functional; settings: DU-145, 72 h, read-out: Activity
[21] = target: Prothrombin (Homo sapiens, UniProt P00734); assay: Inhibition of human thrombin using Boc-Gln-Ala-Arg-7-amido-4-methyl coumarin hydrobromide
[22] = Metabolic stability in rat liver microsomes assessed as compound remaining after 20 mins; type: ADME; settings: read-out: Stability
[23] = system: PC-3; assay: Cytotoxicity against human PC3 cells assessed as cell survival at 10 uM after 72 hrs by calcein AM assay; type: functional; settings: PC-3, 72 h, read-out: Activity
[24] = Terminal half life in NMRI mouse at 1 mg/kg, sc; settings: in vivo, read-out: beta t1/2 (converted)
[25] = Metabolic stability in human liver microsomes assessed as compound remaining after 20 mins; type: ADME; settings: read-out: Stability
[26] = system: PC-3; assay: Antiinvasion activity in human PC3 cells assessed as inhibition of FBS-induced cell invaded to lower surface at 10 uM for 3 days by matrigel assay; type: functional; settings: PC-3, 72 h
[27] = Cmax in NMRI mouse at 1 mg/kg, sc; settings: in vivo
[28] = target: Plasminogen (Homo sapiens, UniProt P00747); assay: Inhibition of human plasmin using pyroGlu-Phe-Lys-pNA.HCl
Sequence of Plasminogen (P00747 97-580 limits assumed): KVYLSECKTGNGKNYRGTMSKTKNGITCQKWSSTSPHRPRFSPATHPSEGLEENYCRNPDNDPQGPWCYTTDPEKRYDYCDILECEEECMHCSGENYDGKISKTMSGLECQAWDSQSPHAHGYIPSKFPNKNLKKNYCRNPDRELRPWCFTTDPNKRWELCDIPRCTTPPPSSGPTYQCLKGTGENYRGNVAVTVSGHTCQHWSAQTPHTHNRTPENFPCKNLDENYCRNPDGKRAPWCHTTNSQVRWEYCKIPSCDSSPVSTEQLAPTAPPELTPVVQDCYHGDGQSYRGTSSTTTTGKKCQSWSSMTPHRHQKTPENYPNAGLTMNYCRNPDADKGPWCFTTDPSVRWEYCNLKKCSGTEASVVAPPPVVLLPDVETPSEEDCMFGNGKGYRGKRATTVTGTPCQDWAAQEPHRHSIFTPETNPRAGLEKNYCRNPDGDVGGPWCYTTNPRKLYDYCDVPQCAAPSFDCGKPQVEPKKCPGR
Sequence of Plasminogen (P00747 581-810 limits assumed): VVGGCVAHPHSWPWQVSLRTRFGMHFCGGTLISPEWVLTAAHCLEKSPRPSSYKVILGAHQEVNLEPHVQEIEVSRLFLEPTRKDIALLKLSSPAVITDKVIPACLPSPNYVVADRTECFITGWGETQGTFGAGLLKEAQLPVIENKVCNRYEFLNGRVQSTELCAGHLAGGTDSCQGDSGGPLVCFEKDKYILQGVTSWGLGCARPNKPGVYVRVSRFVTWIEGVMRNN

[29] = system: Mus musculus; assay: Toxicity in SCID mouse xenografted with human DU145 cells assessed as body weight change at 0.5 mg/kg, sc administered twice daily for 31 days; type: organism-based, DU-145; set-up: dose 0.5 mg/kg, route subcutaneous; settings: in vivo, 744 h
[30] = system: DU-145; assay: Antitumor activity against human DU145 cells xenografted in SCID mouse assessed as tumor growth inhibition at 0.5 mg/kg, sc administered twice daily for 31 days; type: functional; settings: DU-145, sc, 744 h, route subcutaneous, read-out: TGI
[31] = system: Mus musculus; assay: Toxicity in SCID mouse xenografted with human DU145 cells assessed as clinical signs at 0.5 mg/kg, sc administered twice daily for 31 days; type: organism-based, DU-145; set-up: dose 0.5 mg/kg, route subcutaneous; settings: in vivo, 744 h

Ki [2]	remaining at 20 min [3]	IC50 [4]	IC50 [5]	Ki [6]	Ki [8]	solubility [15]	IC50 [16]	IC50 [17]	Ki [21]	remaining at 20 min [22]	SMILES	inhibition at 10 µM [7]	EC50 [9]	EC50 [11]	viability at 10 µM [13]	EC50 [18]	inhibition at 10 µM [19]	viability at 10 µM [20]	viability at 10 µM [23]	inhibition at 10 µM [26]	other results
1625 nM	81%	> 30000 nM	> 30000 nM	516 nM	10 nM	194 µM (≈ 94.4 µg/mL)	> 30000 nM	> 30000 nM	2100 nM	100%	N=C(N)c1ccc(Oc2cc(Oc3ccc(C(=N)N)cc3)cc(C(=O)N[C@H]3CC[C@H](N)CC3)c2)cc1	84%	200 nM	1360 nM	95%	48 nM	81%	100%	96%	97%	Activity [1]: < 5%; Activity [10]: Non-toxic; Tmax [12]: 0.27 h; AUC(0-inf) [14]: 1000 ng·h/mL; half-life [24]: 1.6 h; remaining at 20 min [25]: 85%; Cmax [27]: 487 ng/mL
541 nM				95 nM	61 nM				2680 nM		N=C(N)c1ccc(Oc2cc(NC(=O)C3CCN(C(=O)CCN)CC3)cc(Oc3ccc(C(=N)N)cc3)c2)cc1	60%	130 nM	1580 nM	99%	580 nM	94%	98%	80%	37%	Ki [28]: 2590 nM
894 nM	83%	> 30000 nM	> 30000 nM	503 nM	3 nM	200 µM (≈ 97.3 µg/mL)	> 30000 nM	> 30000 nM	2220 nM	91%	N=C(N)c1ccc(Oc2cc(NC(=O)[C@H]3CC[C@H](N)CC3)cc(Oc3ccc(C(=N)N)cc3)c2)cc1	63%	41 nM	1540 nM	90%	105 nM	98%	100%	94%	86%	Activity [29]: < 5%; Tmax [12]: 0.75 h; AUC(0-inf) [14]: 1850 ng·h/mL; half-life [24]: 3.3 h; inhibition in vivo at 0.5 mg/kg [30]: 52%; remaining at 20 min [25]: 97%; Cmax [27]: 484 ng/mL; Activity [31]: Non-toxic
264 nM	24%	> 30000 nM	> 30000 nM	44 nM	1 nM	182 µM (≈ 88.7 µg/mL)	> 30000 nM	> 30000 nM	2470 nM	34%	N=C(N)c1ccc(Oc2cc(Oc3ccc(C(=N)N)cc3)cc(C(=O)O[C@H]3CC[C@H](N)CC3)c2)cc1	90%	152 nM	135 nM	95%	81 nM	89%	92%	82%	95%	remaining at 20 min [25]: 54%
1541 nM					40 nM				3130 nM		N=C(N)c1ccc(Oc2cc(Oc3ccc(CN)cc3)cc(C(=O)N[C@H]3CC[C@H](N)CC3)c2)cc1	59%	324 nM	1700 nM	100%	485 nM	49%	90%	63%	54%	
